{"source": "paper PMC11995724", "about": "“Antibiotic target discovery by integrated phenotypic and activity-based profiling of electrophilic fragments” (Cell chemical biology, 2025)"}
{"test": "in vitro", "conditions": "human, hek293t cells", "units": {"viability at 48 h, 25 µM": "%"}}
{"smiles": "C=CC(=O)NC1CCN(Cc2ccc(Cl)cc2)CC1", "note": "[1-N08, N-{1-[(4-chlorophenyl)methyl]piperidin-4-yl}prop-2-enamide]", "viability at 48 h, 25 µM": 101}
{"smiles": "C=CC(=O)N(CC(C)(C)C)C1CCN(c2ccc(C#N)cn2)CC1", "note": "[1-N09, N-[1-(5-cyanopyridin-2-yl)piperidin-4-yl]-N-(2,2-dimethylpropyl)prop-2-enamide]", "viability at 48 h, 25 µM": 105}
{"smiles": "C=CC(=O)NC(C)(C)c1noc(CCC)n1", "note": "[1-N10, N-[2-(5-propyl-1,2,4-oxadiazol-3-yl)propan-2-yl]prop-2-enamide]", "viability at 48 h, 25 µM": 91.9}
{"smiles": "C=CC(=O)N1CCCC1c1cccc(C)c1", "note": "(centres unmarked) [1-N11, 1-[2-(3-methylphenyl)pyrrolidin-1-yl]prop-2-en-1-one]", "viability at 48 h, 25 µM": 110}
{"smiles": "C=CC(=O)Nc1ccc2c(=O)onc(C)c2c1", "note": "[1-N12, N-(4-methyl-1-oxo-1H-2,3-benzoxazin-6-yl)prop-2-enamide]", "viability at 48 h, 25 µM": 1.1}
{"smiles": "C=CC(=O)N(Cc1cccc(F)c1F)C1CCCC(F)(F)C1", "note": "(centres unmarked) [1-N13, N-(3,3-difluorocyclohexyl)-N-[(2,3-difluorophenyl)methyl]prop-2-enamide]", "viability at 48 h, 25 µM": 136}
{"smiles": "C=CC(=O)Nc1ccnn1Cc1cccc(Cl)c1", "note": "[1-N14, N-{1-[(3-chlorophenyl)methyl]-1H-pyrazol-5-yl}prop-2-enamide]", "viability at 48 h, 25 µM": 1.05}
{"smiles": "C=CC(=O)NC1CCN(Cc2ccccc2)C1", "note": "(centres unmarked) [1-N15, N-(1-benzylpyrrolidin-3-yl)prop-2-enamide]", "viability at 48 h, 25 µM": 103}
{"smiles": "C=CC(=O)N1CCC(c2ccc(OC)cc2)C1", "note": "(centres unmarked) [1-N16, 1-[3-(4-methoxyphenyl)pyrrolidin-1-yl]prop-2-en-1-one]", "viability at 48 h, 25 µM": 92.1}
{"smiles": "C=CC(=O)NC(C)c1nc(C2CCCCC2)no1", "note": "(centres unmarked) [1-N17, N-[1-(3-cyclohexyl-1,2,4-oxadiazol-5-yl)ethyl]prop-2-enamide]", "viability at 48 h, 25 µM": 102}
{"smiles": "C=CC(=O)N1CCC(c2nc3ccccc3o2)CC1", "note": "[1-N18, 1-[4-(1,3-benzoxazol-2-yl)piperidin-1-yl]prop-2-en-1-one]", "viability at 48 h, 25 µM": 80.1}
{"smiles": "C=CC(=O)N1CCN(C(=O)c2cc(C)no2)CC1", "note": "[1-N19, 1-[4-(3-methyl-1,2-oxazole-5-carbonyl)piperazin-1-yl]prop-2-en-1-one]", "viability at 48 h, 25 µM": 102}
{"smiles": "C=CC(=O)N1CCN(Cc2ccon2)CC1", "note": "[1-N20, 1-{4-[(1,2-oxazol-3-yl)methyl]piperazin-1-yl}prop-2-en-1-one]", "viability at 48 h, 25 µM": 79.6}
{"smiles": "C=CC(=O)N(C)Cc1ccncc1", "note": "[1-N21, N-methyl-N-[(pyridin-4-yl)methyl]prop-2-enamide]", "viability at 48 h, 25 µM": 135}
{"smiles": "C=CC(=O)NC1CN(C(C)=O)C1", "note": "[1-N22, N-(1-acetylazetidin-3-yl)prop-2-enamide]", "viability at 48 h, 25 µM": 73.1}
{"smiles": "C=CC(=O)Nc1c(C)ccc(Cl)c1CO", "note": "[1-O03, N-[3-chloro-2-(hydroxymethyl)-6-methylphenyl]prop-2-enamide]", "viability at 48 h, 25 µM": 67.5}
{"smiles": "C=CC(=O)N1CCC(C(=O)Nc2[nH]nc(C(F)(F)F)c2C)CC1", "note": "[1-O04, N-[4-methyl-3-(trifluoromethyl)-1H-pyrazol-5-yl]-1-(prop-2-enoyl)piperidine-4-carboxamide]", "viability at 48 h, 25 µM": 113}
{"smiles": "C=CC(=O)N1CCOC(c2noc(C(C)C)n2)C1", "note": "(centres unmarked) [1-O05, 1-{2-[5-(propan-2-yl)-1,2,4-oxadiazol-3-yl]morpholin-4-yl}prop-2-en-1-one]", "viability at 48 h, 25 µM": 87}
{"smiles": "C=CC(=O)Nc1nn(C2CCCC2)c(C)c1Cl", "note": "[1-O06, N-(4-chloro-1-cyclopentyl-5-methyl-1H-pyrazol-3-yl)prop-2-enamide]", "viability at 48 h, 25 µM": 78.2}
{"smiles": "C=CC(=O)NCc1ccno1", "note": "[1-O07, N-[(1,2-oxazol-5-yl)methyl]prop-2-enamide]", "viability at 48 h, 25 µM": 68.4}
{"smiles": "C=CC(=O)NC1CCC(c2nc(CC)no2)CC1", "note": "(centres unmarked) [1-O08, N-[4-(3-ethyl-1,2,4-oxadiazol-5-yl)cyclohexyl]prop-2-enamide]", "viability at 48 h, 25 µM": 92.2}
{"smiles": "C=CC(=O)Nc1cnn(-c2ccncc2)c1C(F)F", "note": "[1-O09, N-[5-(difluoromethyl)-1-(pyridin-4-yl)-1H-pyrazol-4-yl]prop-2-enamide]", "viability at 48 h, 25 µM": 67.8}
{"smiles": "C=CC(=O)Nc1ccccc1Cl", "note": "[1-O10, N-(2-chlorophenyl)prop-2-enamide]", "viability at 48 h, 25 µM": 63}
{"smiles": "C=CC(=O)Nc1ccc2c(c1)CCO2", "note": "[1-O11, N-(2,3-dihydro-1-benzofuran-5-yl)prop-2-enamide]", "viability at 48 h, 25 µM": 87.8}
{"smiles": "C=CC(=O)NCC(F)(F)c1cccnc1", "note": "[1-O12, N-[2,2-difluoro-2-(pyridin-3-yl)ethyl]prop-2-enamide]", "viability at 48 h, 25 µM": 111}
{"smiles": "C=CC(=O)Nc1ccc(C)cc1S(=O)(=O)N1CCOCC1", "note": "[1-O13, N-[4-methyl-2-(morpholine-4-sulfonyl)phenyl]prop-2-enamide]", "viability at 48 h, 25 µM": 74.9}
{"smiles": "C=CC(=O)NCc1nnc(C(F)(F)F)s1", "note": "[1-O14, N-{[5-(trifluoromethyl)-1,3,4-thiadiazol-2-yl]methyl}prop-2-enamide]", "viability at 48 h, 25 µM": 131}
{"smiles": "C=CC(=O)NC1(c2ccccc2)CCCC1", "note": "[1-O15, N-(1-phenylcyclopentyl)prop-2-enamide]", "viability at 48 h, 25 µM": 95.6}
{"smiles": "C=CC(=O)NCC1CCS(=O)(=O)C1(C)C", "note": "(centres unmarked) [1-O16, N-[(2,2-dimethyl-1,1-dioxo-1lambda6-thiolan-3-yl)methyl]prop-2-enamide]", "viability at 48 h, 25 µM": 103}
{"smiles": "C=CC(=O)N(Cc1ccccc1)C1CCOc2ccc(OC)cc21", "note": "(centres unmarked) [1-O17, N-benzyl-N-(6-methoxy-3,4-dihydro-2H-1-benzopyran-4-yl)prop-2-enamide]", "viability at 48 h, 25 µM": 71.6}
{"smiles": "C=CC(=O)NCc1ccnn1CC(F)(F)F", "note": "[1-O18, N-{[1-(2,2,2-trifluoroethyl)-1H-pyrazol-5-yl]methyl}prop-2-enamide]", "viability at 48 h, 25 µM": 168}
{"smiles": "C=CC(=O)NC[C@@H]1C[C@H]1C1CCCCC1", "note": "[1-O19, N-{[(1R,2S)-2-cyclohexylcyclopropyl]methyl}prop-2-enamide]", "viability at 48 h, 25 µM": 106}
{"smiles": "C=CC(=O)Nc1ccc(C(F)C(F)(F)F)cc1", "note": "(centres unmarked) [1-O20, N-[4-(1,2,2,2-tetrafluoroethyl)phenyl]prop-2-enamide]", "viability at 48 h, 25 µM": 85.4}
{"smiles": "C=CC(=O)N1CCC(c2nc(C(=O)O)cs2)CC1", "note": "[1-O21, 2-[1-(prop-2-enoyl)piperidin-4-yl]-1,3-thiazole-4-carboxylic acid]", "viability at 48 h, 25 µM": 96.9}
{"smiles": "C=CC(=O)NC(C1CCC1)C1CCOC1", "note": "(centres unmarked) [1-O22, N-[cyclobutyl(oxolan-3-yl)methyl]prop-2-enamide]", "viability at 48 h, 25 µM": 113}
{"smiles": "C=CC(=O)N1CCc2cc(C(N)=O)ccc21", "note": "[1-P03, 1-(prop-2-enoyl)-2,3-dihydro-1H-indole-5-carboxamide]", "viability at 48 h, 25 µM": 172}
{"smiles": "C=CC(=O)N(Cc1ccccc1)Cc1ccccc1", "note": "[1-P04, N,N-dibenzylprop-2-enamide]", "viability at 48 h, 25 µM": 60.4}
{"smiles": "C=CC(=O)NC1CCC(c2nc(-c3ccccc3)n[nH]2)CC1", "note": "(centres unmarked) [1-P05, N-[4-(3-phenyl-1H-1,2,4-triazol-5-yl)cyclohexyl]prop-2-enamide]", "viability at 48 h, 25 µM": 104}
{"smiles": "C=CC(=O)Nc1ccc(C(N)=O)cc1C", "note": "[1-P06, 3-methyl-4-(prop-2-enamido)benzamide]", "viability at 48 h, 25 µM": 84.8}
{"smiles": "C=CC(=O)N[C@H]1CCCC[C@H]1n1cc(C(C)(C)O)nn1", "note": "[1-P07, N-[(1S,2R)-2-[4-(2-hydroxypropan-2-yl)-1H-1,2,3-triazol-1-yl]cyclohexyl]prop-2-enamide]", "viability at 48 h, 25 µM": 128}
{"smiles": "C=CC(=O)NCC1(OC)CCC(C)CC1", "note": "(centres unmarked) [1-P08, N-[(1-methoxy-4-methylcyclohexyl)methyl]prop-2-enamide]", "viability at 48 h, 25 µM": 80.5}
{"smiles": "C=CC(=O)N(Cc1cn(C)nc1-c1ccc(F)cc1)C1CC(C)C1", "note": "(centres unmarked) [1-P09, N-{[3-(4-fluorophenyl)-1-methyl-1H-pyrazol-4-yl]methyl}-N-(3-methylcyclobutyl)prop-2-enamide]", "viability at 48 h, 25 µM": 64.1}
{"smiles": "C=CC(=O)NCC(C)c1ncc(C)s1", "note": "(centres unmarked) [1-P10, N-[2-(5-methyl-1,3-thiazol-2-yl)propyl]prop-2-enamide]", "viability at 48 h, 25 µM": 43.9}
{"smiles": "C=CC(=O)N1CCN(C(=O)c2ccco2)CC1", "note": "[1-P11, 1-[4-(furan-2-carbonyl)piperazin-1-yl]prop-2-en-1-one]", "viability at 48 h, 25 µM": 88.3}
{"smiles": "C=CC(=O)Nc1onc(C2CCCCC2)c1CC(C)C", "note": "[1-P12, N-[3-cyclohexyl-4-(2-methylpropyl)-1,2-oxazol-5-yl]prop-2-enamide]", "viability at 48 h, 25 µM": 0.308}
{"smiles": "C=CC(=O)N(Cc1cn(C)nc1C)c1ccc2c(c1)OCCO2", "note": "[1-P13, N-(2,3-dihydro-1,4-benzodioxin-6-yl)-N-[(1,3-dimethyl-1H-pyrazol-4-yl)methyl]prop-2-enamide]", "viability at 48 h, 25 µM": 81.5}
{"smiles": "C=CC(=O)Nc1ncc(-c2cccc(C)c2)s1", "note": "[1-P14, N-[5-(3-methylphenyl)-1,3-thiazol-2-yl]prop-2-enamide]", "viability at 48 h, 25 µM": 63.6}
{"smiles": "C=CC(=O)N(Cc1cc(C)c2ncccc2c1)C(C)C1CCCO1", "note": "(centres unmarked) [1-P15, N-[(8-methylquinolin-6-yl)methyl]-N-[1-(oxolan-2-yl)ethyl]prop-2-enamide]", "viability at 48 h, 25 µM": 93.5}
{"smiles": "C=CC(=O)N1CCn2nccc21", "note": "[1-P16, 1-{1H,2H,3H-pyrazolo[1,5-a]imidazol-1-yl}prop-2-en-1-one]", "viability at 48 h, 25 µM": 56.6}
{"smiles": "C=CC(=O)N1CSCC1C(=O)NCC1CC1", "note": "(centres unmarked) [1-P17, N-(cyclopropylmethyl)-3-(prop-2-enoyl)-1,3-thiazolidine-4-carboxamide]", "viability at 48 h, 25 µM": 105}
{"smiles": "C=CC(=O)N1CC(OCc2nc(C)no2)C1", "note": "[1-P18, 1-{3-[(3-methyl-1,2,4-oxadiazol-5-yl)methoxy]azetidin-1-yl}prop-2-en-1-one]", "viability at 48 h, 25 µM": 67.7}
{"smiles": "C=CC(=O)NCc1ccc(N2CCCC(C(N)=O)C2)cc1", "note": "(centres unmarked) [1-P19, 1-{4-[(prop-2-enamido)methyl]phenyl}piperidine-3-carboxamide]", "viability at 48 h, 25 µM": 126}
{"smiles": "C=CC(=O)N1CCOC(c2ccccc2Cl)C1", "note": "(centres unmarked) [1-P20, 1-[2-(2-chlorophenyl)morpholin-4-yl]prop-2-en-1-one]", "viability at 48 h, 25 µM": 72.7}
{"smiles": "C=CC(=O)NCCC1=CCCCCC1", "note": "[1-P21, N-[2-(cyclohept-1-en-1-yl)ethyl]prop-2-enamide]", "viability at 48 h, 25 µM": 93.5}
{"smiles": "C=CC(=O)N1CCCC(C2CCN(C(=O)c3cc(C)nn3C)CC2)C1", "note": "(centres unmarked) [1-P22, 1-[1'-(1,3-dimethyl-1H-pyrazole-5-carbonyl)-[3,4'-bipiperidin]-1-yl]prop-2-en-1-one]", "viability at 48 h, 25 µM": 55.9}
{"smiles": "C=CC(=O)NCCn1nnnc1C", "note": "[2-A03, N-[2-(5-methyl-1H-1,2,3,4-tetrazol-1-yl)ethyl]prop-2-enamide]", "viability at 48 h, 25 µM": 110}
